In USRE47689E1, “Compounds for treating spinal muscular atrophy” (PTC Therapeutics, Inc., priority 2011, dated 2019):

Assays:
[1] = system: SMN2 minigene (full length SMN2 minigene mRNA containing SMN2 exon 7); test: SMN2 minigene mRNA splicing RT-qPCR assay in cultured cells; type: cell-based, human; settings: Homo sapiens, HEK293-H; HEK293H cells stably transfected with SMN2-A minigene; 24 hours; 7-point concentration curve; 1.5-fold relative to vehicle-treated cells; read-out: EC1.5x for production of full length SMN2 mRNA
Outline: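 HEK293H cells stably carrying the SMN2-A minigene treated 24 h at 37° C with compound (DMSO, 200× stock), then lysed. Multiplex RT-qPCR (SMN primers 0.4 μM final; 40 cycles) measures full-length exon 7-containing minigene mRNA, normalized to GAPDH and to vehicle; EC1.5x derived and binned by stars.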

Smn protein = Smn protein assay in cultured cells (SMN HTRF); type: cell-based, human; settings: 48 hours; for maximum fold (Fold) increase of Smn protein: SMA patient fibroblast cells, 7-point concentration data, fold increase relative to vehicle control (SMN HTRF); for EC1.5x (concentration giving 1.5-fold Smn protein increase): SMA Type 1 patient fibroblast cells (GM03813), 7-point concentration curve, SMN HTRF, concentration producing 1.5 times Smn protein vs DMSO vehicle control, read-out: EC1.5x for Smn protein expression
Outline: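 Lysates in RIPA with protease inhibitors are incubated overnight at room temperature with HTRF anti-SMN antibodies. EC1.5x is derived from fold increase in ΔF over vehicle.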

melting point | Structure (SMILES) | EC (1.5-fold) [1] [µM] | maximum fold (Fold) increase of Smn protein (Smn protein) | EC1.5x (concentration giving 1.5-fold Smn protein increase) (Smn protein) [nM]
195 to 198 °C | Cc1ccc2oc(-c3cc4ccc(N5CCN6CCC[C@@H]6C5)cc4oc3=O)cc2n1 [Compound 721, 7-[(8aR)-hexahydropyrrolo[1,2-a]pyrazin-2(1H)-yl]-3-(5-methylfuro[3,2-b]pyridin-2-yl)-2H-chromen-2-one] | 1 to 3 | * (maximum fold increase of ≤1.2) | 
200 to 204 °C | Cc1cn2cc(-c3cc4ccc(N5CC[C@H](N(C)C)C5)cc4oc3=O)cc2cn1 [Compound 666, 7-[(3S)-3-(dimethylamino)pyrrolidin-1-yl]-3-(3-methylpyrrolo[1,2-a]pyrazin-7-yl)-2H-chromen-2-one] | < 0.1 | **** (fold increase between >1.5 and ≤1.65) | < 300
220 to 226 °C | Cn1cc2cc(-c3cc4ccc(C5CCN(CCO)CC5)cc4oc3=O)ccc2n1 [Compound 861, 7-[1-(2-hydroxyethyl)piperidin-4-yl]-3-(2-methyl-2H-indazol-5-yl)-2H-chromen-2-one] | < 0.1 | ***** (fold increase >1.65) | 300 to 1000
253 to 257 °C | Cc1cc2cc(-c3cc4ccc(N5CCN[C@@H](C)C5)cc4oc3=O)oc2c(C)n1 [Compound 804, 3-(5,7-dimethylfuro[2,3-c]pyridin-2-yl)-7-[(3S)-3-methylpiperazin-1-yl]-2H-chromen-2-one] | < 0.1 | ***** (fold increase >1.65) | < 300
173 to 175 °C | Cc1cn2cc(-c3cc4ccc(N5C[C@@H]6CCN(C)[C@@H]6C5)cc4oc3=O)cc2c(C)n1 [Compound 729, 3-(1,3-dimethylpyrrolo[1,2-a]pyrazin-7-yl)-7-[(3aS,6aS)-1-methylhexahydropyrrolo[3,4-b]pyrrol-5(1H)-yl]-2H-chromen-2-one] | < 0.1 | *** (fold increase between >1.35 and ≤1.5) | 1000 to 3000
180 to 184 °C | Cc1cn2cc(-c3cc4ccc(CCN5CCOCC5)cc4oc3=O)nc2c(C)n1 [Compound 886, 3-(6,8-dimethylimidazo[1,2-a]pyrazin-2-yl)-7-[2-(morpholin-4-yl)ethyl]-2H-chromen-2-one] | 0.3 to 1 | ***** (fold increase >1.65) | 300 to 1000
232 to 234 °C | CCN1CCN(c2cc(F)c3cc(-c4cn5cc(C)nc(C)c5n4)c(=O)oc3c2)CC1 [Compound 746, 3-(6,8-dimethylimidazo[1,2-a]pyrazin-2-yl)-7-(4-ethylpiperazin-1-yl)-5-fluoro-2H-chromen-2-one] | < 0.1 | ***** (fold increase >1.65) | < 300
285 to 287 °C | Cc1cn2cc(-c3cc4ccc(N5CCN6C[C@H](O)C[C@H]6C5)cc4oc3=O)nc2c(C)n1 [Compound 758, 3-(6,8-dimethylimidazo[1,2-a]pyrazin-2-yl)-7-[(7R,8aS)-7-hydroxyhexahydropyrrolo[1,2-a]pyrazin-2(1H)-yl]-2H-chromen-2-one] | 0.3 to 1 | * (maximum fold increase of ≤1.2) | 
173 to 176 °C | Cc1cn2cc(-c3cc4ccc(N5CCN(C(C)C)CC5)cc4oc3=O)cc2c(C)n1 [Compound 709, 3-(1,3-dimethylpyrrolo[1,2-a]pyrazin-7-yl)-7-[4-(propan-2-yl)piperazin-1-yl]-2H-chromen-2-one] | < 0.1 | **** (fold increase between >1.5 and ≤1.65) | 300 to 1000

Second part, the compound before the results:

Structure (SMILES) | melting point | EC (1.5-fold) [1] [µM] | maximum fold (Fold) increase of Smn protein (Smn protein) | EC1.5x (concentration giving 1.5-fold Smn protein increase) (Smn protein) [nM]
C[C@@H]1CN(c2ccc3cc(-c4cn5cccc(F)c5n4)c(=O)oc3c2)CCN1 [Compound 530, 3-(8-fluoroimidazo[1,2-a]pyridin-2-yl)-7-[(3R)-3-methylpiperazin-1-yl]-2H-chromen-2-one] | 226 to 228 °C | 0.3 to 1 | **** (fold increase between >1.5 and ≤1.65) | < 300
Cl.Cl.O=c1oc2cc(O[C@@H]3CCNC3)ccc2cc1-c1cn2ccsc2n1 [Compound 324, 3-(imidazo[2,1-b][1,3]thiazol-6-yl)-7-[(3R)-pyrrolidin-3-yloxy]-2H-chromen-2-one hydrochloride (1:2)] | 252 to 256 °C | 0.3 to 1 | *** (fold increase between >1.35 and ≤1.5) | 
C[C@@H]1CN(c2ccc3cc(-c4cn5ccccc5n4)c(=O)oc3c2)C[C@H](C)N1 [Compound 139, 7-[(3R,5S)-3,5-dimethylpiperazin-1-yl]-3-(imidazo[1,2-a]pyridin-2-yl)-2H-chromen-2-one] | 261 °C (dec.) | 1 to 3 | *** (fold increase between >1.35 and ≤1.5) | 
Cc1ccn2cc(-c3cc4ccc(N5CCN[C@@H](C)C5)cc4oc3=O)nc2n1 [Compound 229, 3-(7-methylimidazo[1,2-a]pyrimidin-2-yl)-7-[(3S)-3-methylpiperazin-1-yl]-2H-chromen-2-one] | 298 to 301 °C | 0.1 to 0.3 | *** (fold increase between >1.35 and ≤1.5) | 
C[C@@H]1CN(c2ccc3cc(-c4ccc5c(c4)OCO5)c(=O)oc3c2)CCN1 [Compound 488, 3-(1,3-benzodioxol-5-yl)-7-[(3R)-3-methylpiperazin-1-yl]-2H-chromen-2-one] | 135 to 137 °C | 3 to 30 | * (maximum fold increase of ≤1.2) | 
CN1CCN(c2ccc3cc(-c4cn5ccc(C(F)(F)F)cc5n4)c(=O)oc3c2)CC1 [Compound 115, 7-(4-methylpiperazin-1-yl)-3-[7-(trifluoromethyl)imidazo[1,2-a]pyridin-2-yl]-2H-chromen-2-one] | 274 to 280 °C | 0.3 to 1 | *** (fold increase between >1.35 and ≤1.5) | 
Cc1cccnc1Nc1cc2ccc(N3CCNCC3)cc2oc1=O [Compound 61, 3-[(3-methylpyridin-2-yl)amino]-7-(piperazin-1-yl)-2H-chromen-2-one] | 164 to 167 °C | 3 to 30 | ** (fold increase between >1.2 and ≤1.35) | 
Cc1cccn2cc(-c3cc4ccc(N5CCN(C)CC5)cc4oc3=O)nc12 [Compound 84, 3-(8-methylimidazo[1,2-a]pyridin-2-yl)-7-(4-methylpiperazin-1-yl)-2H-chromen-2-one] | 224 to 226 °C | 0.3 to 1 | *** (fold increase between >1.35 and ≤1.5) | 1000 to 3000
CN1CCN(c2ccc3cc(-c4nc5ccccc5s4)c(=O)oc3c2)CC1 [Compound 16, 3-(1,3-benzothiazol-2-yl)-7-(4-methylpiperazin-1-yl)-2H-chromen-2-one] | 259 to 262 °C | 0.3 to 1 | ** (fold increase between >1.2 and ≤1.35) | 
